Converted amounts (≈) assume the structure as drawn.
How the values were obtained:
[1] = test system: Blumeria graminis f. sp. tritici; assay: Fungicidal activity against Blumeria graminis f. sp. tritici in 2 weeks old wheat seedlings assessed as control of powdery mildew at 0.125 ppm pretreated 24 hr before by foliar application at 22 +/- 2 degC under greenhouse and leaf area measured after 10 days of inoculation; format: functional
[2] = test system: Podosphaera fuliginea; assay: Fungicidal activity against Podosphaera fuliginea in cucumber cotyledon assessed as control of powdery mildew measured as length inhibition at 7.8 ppm treated 24 hr inoculation at 22 +/- 2 degC measured after 10 days by vapour-phase activity test; format: functional
[3] = test system: Blumeria graminis f. sp. tritici; assay: Fungicidal activity against Blumeria graminis f. sp. tritici in 2 weeks old wheat seedlings assessed as control of powdery mildew at 2 ppm pretreated 24 hr before by foliar application at 22 +/- 2 degC under greenhouse and leaf area measured after 10 days of inoculation; format: functional
[4] = test system: Blumeria graminis f. sp. tritici; assay: Fungicidal activity against Blumeria graminis f. sp. tritici in 2 weeks old wheat seedlings assessed as control of powdery mildew pretreated 24 hr before by foliar application at 22 +/- 2 degC under greenhouse and leaf area measured after 10 days of inoculation; format: functional, organism-based
[5] = test system: Blumeria graminis f. sp. tritici; assay: Fungicidal activity against Blumeria graminis f. sp. tritici in 2 weeks old wheat seedlings assessed as control of powdery mildew at 31.3 ppm pretreated 24 hr before by foliar application at 22 +/- 2 degC under greenhouse and leaf area measured after 10 days of inoculation; format: functional
[6] = test system: Blumeria graminis f. sp. tritici; assay: Fungicidal activity against Blumeria graminis f. sp. tritici in 2 weeks old wheat seedlings assessed as control of powdery mildew at 0.5 ppm pretreated 24 hr before by foliar application at 22 +/- 2 degC under greenhouse and leaf area measured after 10 days of inoculation; format: functional
[7] = test system: Podosphaera fuliginea; assay: Fungicidal activity against Podosphaera fuliginea in cucumber cotyledon assessed as control of powdery mildew measured as width inhibition at 7.8 ppm treated 24 hr inoculation at 22 +/- 2 degC measured after 10 days by vapour-phase activity test; format: functional
[8] = test system: Blumeria graminis f. sp. tritici; assay: Fungicidal activity against Blumeria graminis f. sp. tritici in 2 weeks old wheat seedlings assessed as control of powdery mildew at 0.06 ppm pretreated 24 hr before by foliar application at 22 +/- 2 degC under greenhouse and leaf area measured after 10 days of inoculation; format: functional
[9] = test system: Oculimacula yallundae; assay: Fungicidal activity against W-type Oculimacula yallundae assessed as inhibition of mycelial growth at 20 degC for 14 days in presence of 50 ppm flovone; format: functional, organism-based; settings: for MIC: Oculimacula yallundae, 336 h
[10] = test system: Oculimacula yallundae; assay: Fungicidal activity against W-type Oculimacula yallundae assessed as inhibition of mycelial growth at 20 degC for 14 days; format: functional, organism-based; settings: for MIC: Oculimacula yallundae, 336 h
[11] = test system: Blumeria graminis f. sp. tritici; assay: Fungicidal activity against Blumeria graminis f. sp. tritici in 2 weeks old wheat seedlings assessed as control of powdery mildew at 7.8 ppm pretreated 24 hr before by foliar application at 22 +/- 2 degC under greenhouse and leaf area measured after 10 days of inoculation; format: functional
[12] = test system: Blumeria graminis f. sp. tritici; assay: Fungicidal activity against Blumeria graminis f. sp. tritici in 2 weeks old wheat seedlings assessed as control of powdery mildew at 125 ppm pretreated 24 hr before by foliar application at 22 +/- 2 degC under greenhouse and leaf area measured after 10 days of inoculation; format: functional
[13] = test system: Podosphaera fuliginea; assay: Fungicidal activity against Podosphaera fuliginea in cucumber cotyledon assessed as control of powdery mildew measured as length inhibition at 2 ppm treated 24 hr inoculation at 22 +/- 2 degC measured after 10 days by vapour-phase activity test; format: functional
[14] = test system: Podosphaera fuliginea; assay: Fungicidal activity against Podosphaera fuliginea in cucumber cotyledon assessed as control of powdery mildew measured as width inhibition at 2 ppm treated 24 hr inoculation at 22 +/- 2 degC measured after 10 days by vapour-phase activity test; format: functional

SMILES	Activity [1]	INH [2]	Activity [3]	EC50 [4]	Activity [5]	Activity [6]	INH [7]	Activity [8]	EC50 [9]	MIC [9]	EC50 [10]	MIC [10]	Activity [11]	Activity [12]	INH [13]	INH [14]
CNC(=O)/C(=N/OC)c1ccccc1Oc1ncc(Cl)cc1C(F)(F)F	60%	8.9 mm	96%	0.05 ppm	100%	89%	10.7 mm	50%	0.08 ppm	1 µg/mL	0.33 ppm	< 125 µg/mL	100%			
CNC(=O)/C(=N/OC)c1ccccc1Oc1cc(C)ccc1C	79%		98%	0.07 ppm	100%	94%		22%	0.03 ppm	1 µg/mL	0.13 ppm	< 125 µg/mL	100%			
CO/C=C(/C(=O)OC)c1ccccc1Oc1cc(Oc2ccccc2C#N)ncn1 [AZOXYSTROBIN]	5%		64%	1.39 ppm	87%	35%			0.41 ppm	25 µg/mL	3.2 ppm	< 125 µg/mL	85%	95%		
OC(c1ccc(Cl)cc1)(c1cncnc1)c1ccccc1Cl (stereo unspecified) [FENARIMOL]	0%		84%	0.58 ppm	98%	50%					1.02 ppm	25 µg/mL (≈ 75.5 µM)	94%	98%		
CO/N=C(/C(=O)OC)c1ccccc1COc1ccccc1C [KRESOXIM-METHYL]	14%	<20 mm	68%	0.95 ppm	92%	39%	<20 mm		0.11 ppm	5 µg/mL	0.79 ppm	< 125 µg/mL	86%	100%	12.7 mm	13.5 mm
CCCN(CCOc1c(Cl)cc(Cl)cc1Cl)C(=O)n1ccnc1 [PROCHLORAZ]	0%		57%	3.39 ppm	70%	23%					0.06 ppm	5 µg/mL (≈ 13.3 µM)	70%	92%		
COC(=O)NC(=S)Nc1ccccc1NC(=S)NC(=O)OC [THIOPHANATE METHYL]											1.18 ppm	25 µg/mL (≈ 73 µM)				
CC(C)(C)C(=O)C(Oc1ccc(Cl)cc1)n1cncn1 (stereo unspecified) [TRIADIMEFON]	0%	<20 mm	57%	1.6 ppm	94%	30%	<20 mm				7.81 ppm	< 125 µg/mL	82%	99%		

— ChEMBL document CHEMBL3046511, “Controlling Efficacy of Strobilurin Derivatives against Wheat Powdery Mildew and Eyespot” (J Pestic Sci, 2002)
